{
  "source": "patent US20220081482A1",
  "about": "“ANTICANCER COMPOSITIONS COMPRISING IMMUNE CHECKPOINT INHIBITORS” (priority 2018, published 2022)",
  "origin": "cited, not measured here",
  "settings": "orally administered to rats",
  "data": [
    {"compound": "CN(C)C(=N)N=C(N)N", "note": "[metformin]", "values": [
      {"measurement": "LD50", "result": "1,450 mg/kg"}
    ]}
  ]
}
